Test results reported in patent publication US7101915B1, “P-terphenyl compounds” (Shionogi & Co., Ltd., priority 1996, dated 2006).
Marks after values point to notes of the source that are not given here.

Key:
[1] = tested on: anti-OVA IgE antibody titer (PCA titer); experiment: Suppressive effect on the IgE production against ovalbumin (OVA), PCA titer; type: in vivo, BALB/c mice; details: 40 mg/kg orally for 10 days; untreated group 9-12
Procedure: Experiment 4 Suppressive Effect on the IgE Production Against Ovalbumin (OVA)
BALB/c mice (female, 8-10 weeks old) and Wistar rats (female, 8-10 weeks old) which were bought from Japan SLC, Inc. (Shizuoka) were used.
BALB/c mice were immunized by an intraperitoneal administration of 0.2 ml suspension of 2 μg of ovalbumin (OVA) and 2 mg of aluminium hydroxide gel in physiological saline. After 10 days, blood was drawn from hearts, sera were separated and stocked at −40° C. till the measurement of an IgE antibody titer.
After the compound of the present invention was dissolved or suspended in N, N-dimethylacetoamide, the mixture was diluted 20 times with miglyol 812 neutral oil. The obtained solution was orally administered to mice at 0.1 ml per mouse. The administration was continued for 10 days from the immunizing day to the day before drawing blood. IPD-1151-T (a compound described in Jpn. Pharmacol. (1993) 61, 31–39) and a compound No. 36 (a compound 36 described in J. Med. Chem. (1997) 40: 395–407) were examined as controls by the same method.
4) Measurement of Anti-OVA IgE Antibody Titer (PCA Titer)
The samples 2-fold diluted with physiological saline were prepared from the obtained mouse serum and each 50 μl of the solution was intradermally injected to backs of Wistar rats which previously hair cut. After 24 hours, a passive cutaneous anaphylaxis reaction (PCA) was induced by an intravenous injection of 0.5 ml of physiological saline containing 1 mg of OVA and 5 mg of Evans' blue dye. After 30 minutes, the rats were sacrified and the highest dilution rate of the serum giving bluing with a diameter of more than 5 mm was recorded as the PCA titer. For example, when a serum is positive for the PCA reaction till […], the anti-OVA IgE antibody titer of the mouse is defined as 7.

[2] = tested on: IgG1 production of mouse spleen lymphocytes; experiment: Suppressive effect on antibody production of mouse spleen lymphocytes: IgG1; type: cell-based, BALB/c (nu/nu) mice; details: Lymphocyte, 240 h, LPS + IL-4, 10 days
Procedure: (§1) Experiment 6 Suppressive Effect on Antibody Production of Mouse Spleen Lymphocytes 1. Experimental Method 1) Animals
(§2) BALB/c (nu/nu) mice were bought from Japan SLC, Inc. (Shizuoka) and 7 weeks old-male mice were used.
(§3) RPMI medium (Nissui Pharmaceutical Co., Ltd.) containing 10% fetal bovine serum (HyClone Lab.) inactivated at 56° C. for 30 minutes, penicillin (100 units/ml) and streptomycin (100 μg/ml) (GIBCO) was used for experiments.
(§4) Each of the compounds was dissolved in dimethylsulfoxide (Nakaraitesk) at […] and diluted with the medium to adjust a final concentration to 0.1 μg/ml −10 μg/ml.
(§5) 4) Mouse Spleen Lymphocytes […]
(§6) In 96-well cultivating plate (Sumitomo Bakelite Company Limited) mouse spleen lymphocytes were inoculated 2×10^5 cells per well. […] After the cultivation for 10 days, the amount of the antibody in a supernatant was quantified by ELISA method.
(§7) 7) Quantification of the IgG1, IgG2a and IgM Antibodies
(§8) In 96-well plate 50 μl of 10 μg/ml Goat Anti-Mouse Ig (IgM+G+A, H+ L) (Southern Biotechnology, Birmingham) was added and the plate was coated at 4° C. overnight. […] After washing three times with PBST, 100 μl of culture supernatant which was diluted with PBS or 100 μl of an antibody standard solution (Mouse IgG1 standard, Mouse IgG2a standard, Mouse IgM standard, BETHYL Laboratories) of a pre-determined concentration was added and incubated for 1 hour. […]

[3] = tested on: IgM production of mouse spleen lymphocytes; experiment: Suppressive effect on antibody production of mouse spleen lymphocytes: IgM; type: cell-based, BALB/c (nu/nu) mice; details: Lymphocyte, 240 h, LPS + IL-4, 10 days
Procedure: as §1, §2, §3, §4, §5, §6, §7, §8

IC50 [2]: 0.51 µg/mL
IC50 [3]: 3.5 µg/mL
Compound: Cc1cc(-c2ccc(OCC=C(Cl)Cl)c(F)c2)c(C)cc1-c1ccc(O)cc1 [Compound I-963]
PCA Titer [1]: 3.6**
